Laboratory results reported in patent publication US20250333397A1 (REMIX THERAPEUTICS INC., priority 2021, published 2025).
Counter-ions that a name gives are not always drawn. Like-named read-outs stand apart in the source and are kept apart here.

Assays:
Assay type in all cases: cell-based, human
HTT mRNA = assay: RT-qPCR splicing assay, HTT canonical (CJ) and alternative (AJ) junction mRNA; conditions: Homo sapiens; for AC50: read-out: HTT AJ (AC50, increase in AJ mRNA)
In short: (§1)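 Cells: A673 (DMEM/10% FBS, plated 24 h before) or K562 (IMDM/10% FBS). Dosing: 11-pt 3-fold series, 10 uM top final, ≤0.25% DMSO, 24 h, 37 °C/5% CO2. Readout: RT-qPCR of CJ and AJ junctions, housekeeper-normalized, RQ = 2^(-ΔΔCt) vs DMSO.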

MYB mRNA = assay: RT-qPCR splicing assay, MYB canonical (CJ) and alternative (AJ) junction mRNA; conditions: Homo sapiens; for AC50: read-out: MYB AJ (AC50, increase in AJ mRNA)
In short: as §1

SMN2 mRNA = assay: RT-qPCR splicing assay panel, SMN2 canonical junction (CJ) mRNA; conditions: Homo sapiens
In short: as §1

Target C mRNA = assay: RT-qPCR splicing assay panel, Target C canonical junction (CJ) mRNA; conditions: Homo sapiens
In short: as §1

[1] = 24 h, Table 3A, A673 or K562 cells, 24 h treatment
[2] = 24 h, Table 3A, A673 or K562 cells, 24 h treatment, read-out: HTT CJ (IC50, decrease in CJ mRNA)
[3] = canonical junction (CJ) mRNA, RT-qPCR panel, Table 4A, read-out: HTT, decrease in CJ mRNA levels, IC50
[4] = 24 h, Table 3A, A673 or K562 cells, 24 h treatment, read-out: MYB CJ (IC50, decrease in CJ mRNA)
[5] = canonical junction (CJ) mRNA, RT-qPCR panel, Table 4A, read-out: MYB, decrease in CJ mRNA levels, IC50
[6] = canonical junction (CJ) mRNA, RT-qPCR panel, Table 4A, read-out: SMN2, decrease in CJ mRNA levels, IC50
[7] = canonical junction (CJ) mRNA, RT-qPCR panel, Table 4A, read-out: Target C, decrease in CJ mRNA levels, IC50
[8] = 24 h, Table 3B, A673 or K562 cells, 24 h treatment
[9] = 24 h, Table 3B, A673 or K562 cells, 24 h treatment, read-out: HTT CJ (IC50, decrease in CJ mRNA)
[10] = Table 4B, gene panel, read-out: HTT (IC50, decrease in CJ mRNA levels)
[11] = 24 h, Table 3B, A673 or K562 cells, 24 h treatment, read-out: MYB CJ (IC50, decrease in CJ mRNA)
[12] = Table 4B, gene panel, read-out: MYB (IC50, decrease in CJ mRNA levels)
[13] = Table 4B, gene panel, read-out: SMN2 (IC50, decrease in CJ mRNA levels)
[14] = Table 4B, gene panel, read-out: Target C (IC50, decrease in CJ mRNA levels)

| SMILES | AC50 (HTT mRNA; [1]) [nM] | IC50 (HTT mRNA; [2]) [nM] | IC50 (HTT mRNA; [3]) [nM] | AC50 (MYB mRNA; [1]) [nM] | IC50 (MYB mRNA; [4]) [nM] | IC50 (MYB mRNA; [5]) [nM] | IC50 (SMN2 mRNA; [6]) [nM] | IC50 (Target C mRNA; [7]) [nM] | AC50 (HTT mRNA; [8]) [nM] | IC50 (HTT mRNA; [9]) [nM] | IC50 (HTT mRNA; [10]) [nM] | AC50 (MYB mRNA; [8]) [nM] | IC50 (MYB mRNA; [11]) [nM] | IC50 (MYB mRNA; [12]) [nM] | IC50 (SMN2 mRNA; [13]) [nM] | IC50 (Target C mRNA; [14]) [nM] |
| --- | --- | --- | --- | --- | --- | --- | --- | --- | --- | --- | --- | --- | --- | --- | --- | --- |
| COc1cc(-c2ccc(-c3ccc(N4CC(F)[C@@H](NC(C)(C)C)C4)nn3)c(O)c2)cnn1 (stereo in doubt) [Compound 217, 2-{6-[(3S,4R)-3-(tert-butylamino)-4-fluoropyrrolidin-1-yl]pyridazin-3-yl}-5-(6-methoxypyridazin-4-yl)phenol] | 100 to 1000 | 100 to 1000 | 100 to 1000 | 1000 to 10000 | 100 to 1000 | 100 to 1000 | < 100 | 100 to 1000 | – | – | – | – | – | – | – | – |
| Cn1cc2cc(-c3ccc(-c4ccc(N5CCC(NC6CCC6)C5)nn4)c(O)c3)ncc2n1 (stereo not drawn) [Compound 320] | 100 to 1000 | 100 to 1000 | 100 to 1000 | 100 to 1000 | 100 to 1000 | 100 to 1000 | < 100 | 100 to 1000 | – | – | – | – | – | – | – | – |
| Cc1cn2nc(-c3ccc(-c4ccc(N5CCC(NC6CCC6)C5)nn4)c(O)c3)cc(C)c2n1 (stereo not drawn) [Compound 317] | 100 to 1000 | < 100 | < 100 | 100 to 1000 | 100 to 1000 | 100 to 1000 | 100 to 1000 | 100 to 1000 | – | – | – | – | – | – | – | – |
| Cc1ccc(-c2cc(O)c(-c3ccc(N4CC[C@H](NC5CCC5)C4)nn3)cc2F)cn1 [Compound 223, 2-{6-[(3S)-3-(cyclobutylamino)pyrrolidin-1-yl]pyridazin-3-yl}-4-fluoro-5-(6-methylpyridin-3-yl)phenol] | 100 to 1000 | 100 to 1000 | 100 to 1000 | 100 to 1000 | 100 to 1000 | 100 to 1000 | 100 to 1000 | 1000 to 10000 | – | – | – | – | – | – | – | – |
| Cn1ccc2cc(O)c(-c3cnc(N4CCC(NC(C)(C)C)C4)nn3)cc2c1=O (stereo not drawn) [Compound 869] | – | – | – | – | – | – | – | – | > 10000 | > 10000 | > 10000 | > 10000 | > 10000 | > 10000 | > 10000 | > 10000 |
| Oc1cc(-c2ccnnc2)ccc1-c1ccc(N2CCC(NC3CCC3)C2)nn1 (stereo not drawn) [Compound 388] | 1000 to 10000 | 1000 to 10000 | 1000 to 10000 | 1000 to 10000 | 1000 to 10000 | 1000 to 10000 | 100 to 1000 | 1000 to 10000 | – | – | – | – | – | – | – | – |
| CCOc1cc(-c2ccc(-c3ccc(N4CCC(NCC5CC5)C4)nn3)c(O)c2)ncn1 (stereo not drawn) [Compound 433] | > 10000 | > 10000 | > 10000 | > 10000 | > 10000 | > 10000 | > 10000 | > 10000 | – | – | – | – | – | – | – | – |
| COc1nc(-c2ccc(N3CC[C@@H](NC(C)(C)C)C3)nn2)ccc1-c1cnc(C)s1 [Compound 405] | < 100 | < 100 | < 100 | < 100 | < 100 | < 100 | < 100 | < 100 | – | – | – | – | – | – | – | – |
| CC(C)(C)NC1CCN(c2ccc(-c3ccc(-n4cccn4)c(O)c3)nn2)C1 (stereo not drawn) [Compound 109, 5-{6-[3-(tert-butylamino)pyrrolidin-1-yl]pyridazin-3-yl}-2-(pyrazol-1-yl)phenol trifluoroacetate] | > 10000 | 1000 to 10000 | 1000 to 10000 | > 10000 | > 10000 | > 10000 | 1000 to 10000 | > 10000 | – | – | – | – | – | – | – | – |
| COc1cc(-c2cc(O)c(-c3ccc(N4CC[C@@H](NC(C)(C)C)C4)nn3)cc2F)ncn1 [Compound 396] | 1000 to 10000 | 100 to 1000 | 100 to 1000 | 1000 to 10000 | 1000 to 10000 | 1000 to 10000 | < 100 | 1000 to 10000 | – | – | – | – | – | – | – | – |
| CC1(C)CC(Oc2ncc(-c3cc(F)c(-c4cn[nH]c4)cc3O)nn2)CC(C)(C)N1 [Compound 377] | 100 to 1000 | 100 to 1000 | 100 to 1000 | 1000 to 10000 | 1000 to 10000 | 1000 to 10000 | 100 to 1000 | 100 to 1000 | – | – | – | – | – | – | – | – |
| COc1cc(-c2ccc(-c3ccc(N4CC[C@@H](N[C@H]5C[C@@H](F)C5)C4)nn3)c(O)c2)ncn1 [Compound 408, 5-(6-methoxypyrimidin-4-yl)-2-{6-[(3S)-3-{[(1s,3s)-3-fluorocyclobutyl]amino}pyrrolidin-1-yl]pyridazin-3-yl}phenol] | 100 to 1000 | < 100 | < 100 | 100 to 1000 | 100 to 1000 | 100 to 1000 | < 100 | 100 to 1000 | – | – | – | – | – | – | – | – |
| Cc1nnc(-c2cc(O)c(-c3ccc(N4CC[C@@H](NC5CCC5)C4)nn3)cc2F)s1 [Compound 359] | 1000 to 10000 | 100 to 1000 | 100 to 1000 | 1000 to 10000 | 1000 to 10000 | 1000 to 10000 | 100 to 1000 | 1000 to 10000 | – | – | – | – | – | – | – | – |
| Cn1ccc2cc(O)c(-c3ccc(N4CC[C@H](NC(C)(C)C)C4)nn3)cc2c1=O [Compound 873] | – | – | – | – | – | – | – | – | 1000 to 10000 | 100 to 1000 | 100 to 1000 | 1000 to 10000 | > 10000 | > 10000 | 100 to 1000 | 1000 to 10000 |
| COc1cncc(-c2ccc(-c3ccc(N4CC[C@H](NC5CCC5)C4)nn3)c(O)c2)c1 [Compound 304] | 1000 to 10000 | 1000 to 10000 | 1000 to 10000 | 1000 to 10000 | 1000 to 10000 | 1000 to 10000 | 1000 to 10000 | 1000 to 10000 | – | – | – | – | – | – | – | – |
| Oc1cc(-n2cnnc2)ccc1-c1ccc(N2CCC(NC3CCC3)C2)nn1 (stereo not drawn) [Compound 345] | 1000 to 10000 | 1000 to 10000 | 1000 to 10000 | 1000 to 10000 | 1000 to 10000 | 1000 to 10000 | 100 to 1000 | > 10000 | – | – | – | – | – | – | – | – |
| Cc1nc2c(F)cc(-c3ccc(-c4ccc(N5CCC(NC6CCC6)C5)nn4)c(O)c3)cc2o1 (stereo not drawn) [Compound 326] | 100 to 1000 | < 100 | < 100 | 100 to 1000 | 100 to 1000 | 100 to 1000 | < 100 | 100 to 1000 | – | – | – | – | – | – | – | – |
| COc1nc(-c2ccc(N3CCC(NC4CCC4)C3)nn2)ccc1-c1cnc(C)s1 (stereo not drawn) [Compound 374] | 100 to 1000 | 100 to 1000 | 100 to 1000 | 1000 to 10000 | 100 to 1000 | 100 to 1000 | < 100 | 100 to 1000 | – | – | – | – | – | – | – | – |
| Cc1nnc(-c2cc(O)c(-c3ccc(N4CC[C@H](NC5CCC5)C4)nn3)cc2F)s1 [Compound 358] | 1000 to 10000 | 100 to 1000 | 100 to 1000 | 1000 to 10000 | 1000 to 10000 | 1000 to 10000 | 100 to 1000 | 1000 to 10000 | – | – | – | – | – | – | – | – |
| Cc1ncc(-c2cc(O)c(-c3cnc(OC4CC(C)(C)NC(C)(C)C4)nn3)cc2F)s1 [Compound 435] | 100 to 1000 | 100 to 1000 | 100 to 1000 | 1000 to 10000 | 1000 to 10000 | 1000 to 10000 | < 100 | 100 to 1000 | – | – | – | – | – | – | – | – |
| Cc1nc2cc(O)c(-c3cnc(N4CC[C@H](N(C)C(C)(C)C)C4)nn3)cc2o1 [Compound 857] | – | – | – | – | – | – | – | – | 100 to 1000 | < 100 | < 100 | 100 to 1000 | 100 to 1000 | 100 to 1000 | < 100 | 100 to 1000 |
